Data from the NIST ThermoML archive (doi:10.1021/je200637v).
Numbers after ± are expanded uncertainties.

Test: activity coefficient (dimensionless); of the first substance listed, at infinite dilution; xn = mol fraction of the nth substance listed
Settings: Liquid, Chromatography, x1 = 0

SMILES | activity coefficient (322.85 K) | activity coefficient (332.65 K) | activity coefficient (343.15 K)
CC1CCCCC1 [methylcyclohexane] + CCCCCCCC[N+](CCCCCCCC)(CCCCCCCC)CCCCCCCC.O=S(=O)([N-]S(=O)(=O)C(F)(F)F)C(F)(F)F | 1.07 ± 0.03 | 1.06 ± 0.03 | 1.05 ± 0.03
CC1CCCCC1 [methylcyclohexane] + CCCC[N+](C)(CCCC)CCCC.O=S(=O)([N-]S(=O)(=O)C(F)(F)F)C(F)(F)F | 5.92 ± 0.27 | 5.91 ± 0.27 | 5.58 ± 0.26
CC1CCCC1 [methylcyclopentane] + CCCCCCCCCC[N+](C)(C)C.O=S(=O)([N-]S(=O)(=O)C(F)(F)F)C(F)(F)F | 2.99 ± 0.14 | 2.99 ± 0.14 | 2.83 ± 0.13
CC1CCCC1 [methylcyclopentane] + CCCCCCCC[N+](C)(C)C.O=S(=O)([N-]S(=O)(=O)C(F)(F)F)C(F)(F)F | 4.18 ± 0.19 | 3.95 ± 0.18 | 3.67 ± 0.17
CC1CCCC1 [methylcyclopentane] + CCCCCCCC[N+](CCCCCCCC)(CCCCCCCC)CCCCCCCC.O=S(=O)([N-]S(=O)(=O)C(F)(F)F)C(F)(F)F | 0.98 ± 0.03 | 0.97 ± 0.03 | 0.97 ± 0.03
CC1CCCC1 [methylcyclopentane] + CCCC[N+](C)(CCCC)CCCC.O=S(=O)([N-]S(=O)(=O)C(F)(F)F)C(F)(F)F | 4.75 ± 0.22 | 4.74 ± 0.22 | 4.5 ± 0.21
C[N+](=O)[O-] [nitromethane] + CCCCCCCCCC[N+](C)(C)C.O=S(=O)([N-]S(=O)(=O)C(F)(F)F)C(F)(F)F | 0.56 ± 0.03 | 0.58 ± 0.03 | 0.55 ± 0.03
C[N+](=O)[O-] [nitromethane] + CCCCCCCC[N+](C)(C)C.O=S(=O)([N-]S(=O)(=O)C(F)(F)F)C(F)(F)F | 0.6 ± 0.03 | 0.58 ± 0.03 | 0.55 ± 0.03
C[N+](=O)[O-] [nitromethane] + CCCCCCCC[N+](CCCCCCCC)(CCCCCCCC)CCCCCCCC.O=S(=O)([N-]S(=O)(=O)C(F)(F)F)C(F)(F)F | 0.63 ± 0.03 | 0.61 ± 0.03 | 0.59 ± 0.03
C[N+](=O)[O-] [nitromethane] + CCCC[N+](C)(CCCC)CCCC.O=S(=O)([N-]S(=O)(=O)C(F)(F)F)C(F)(F)F | 0.65 ± 0.03 | 0.65 ± 0.03 | 0.62 ± 0.03
CCCCCCCCC [nonane] + CCCCCCCCCC[N+](C)(C)C.O=S(=O)([N-]S(=O)(=O)C(F)(F)F)C(F)(F)F | 8.87 ± 0.41 | 8.63 ± 0.4 | 7.61 ± 0.35
CCCCCCCCC [nonane] + CCCCCCCC[N+](C)(C)C.O=S(=O)([N-]S(=O)(=O)C(F)(F)F)C(F)(F)F | 15.9 ± 0.74 | 14.8 ± 0.68 | 13.4 ± 0.62
CCCCCCCCC [nonane] + CCCCCCCC[N+](CCCCCCCC)(CCCCCCCC)CCCCCCCC.O=S(=O)([N-]S(=O)(=O)C(F)(F)F)C(F)(F)F | 2.19 ± 0.1 | 2.14 ± 0.1 | 2.09 ± 0.09
CCCCCCCCC [nonane] + CCCC[N+](C)(CCCC)CCCC.O=S(=O)([N-]S(=O)(=O)C(F)(F)F)C(F)(F)F | 16.5 ± 0.76 | 16.1 ± 0.74 | 15 ± 0.69
CCCCCCCC [octane] + CCCCCCCCCC[N+](C)(C)C.O=S(=O)([N-]S(=O)(=O)C(F)(F)F)C(F)(F)F | 6.53 ± 0.3 | 6.41 ± 0.29 | 6.1 ± 0.28
CCCCCCCC [octane] + CCCCCCCC[N+](C)(C)C.O=S(=O)([N-]S(=O)(=O)C(F)(F)F)C(F)(F)F | 11 ± 0.51 | 10.3 ± 0.47 | 9.47 ± 0.43
CCCCCCCC [octane] + CCCCCCCC[N+](CCCCCCCC)(CCCCCCCC)CCCCCCCC.O=S(=O)([N-]S(=O)(=O)C(F)(F)F)C(F)(F)F | 1.73 ± 0.07 | 1.71 ± 0.07 | 1.69 ± 0.07
